In brackets after ≈: the same amount, converted by molar mass. Like-named read-outs stand apart in the source and are kept apart here.
Columns and labels:
Test in all cases: Antimicrobial susceptibility testing (MIC), BD Phoenix Automated Microbiology System; as to interpretation of the result: key: R, resistant; I, intermediate; S, susceptible; R*: *As a rule, when ESBL is detected, an interpretation of susceptible or intermediate for penicillins, cephalosporins and aztreonam is reported as resistant
Format in all cases: cell-based
Acinetobacter baumannii = settings: for MIC: Acinetobacter baumannii
Description: (§1) The inventors performed antimicrobial susceptibility testing (AST) by determining the minimal inhibiting concentration (MIC) of a panel of antimicrobials on all twenty bacterial isolates using the BD Phoenix Automated Microbiology System (Table 3). Antimicrobial panels included several drugs from each of the four most commonly used classes of antimicrobials, aminoglycosides, β-lactams, carbapenems and fluoroquinolones. The panels also included antimicrobials from other classes, such as trimethoprim/sulfamethoxazole, but resistance to these was not considered in the classification of isolates as multidrug-resistant.

Escherichia coli = settings: for MIC: Escherichia coli
Description: as §1

Klebsiella ssp. = settings: for MIC: Klebsiella
Description: as §1

Pseudomonas aeruginosa = settings: for MIC: Pseudomonas aeruginosa
Description: as §1

[1] = Acinetobacter baumannii isolate 1
[2] = Acinetobacter baumannii isolate 2
[3] = Acinetobacter baumannii isolate 3
[4] = Acinetobacter baumannii isolate 4
[5] = Acinetobacter baumannii isolate 5
[6] = Pseudomonas aeruginosa isolate 1
[7] = Pseudomonas aeruginosa isolate 2
[8] = Pseudomonas aeruginosa isolate 3
[9] = Pseudomonas aeruginosa isolate 4
[10] = Pseudomonas aeruginosa isolate 5
[11] = read-out: minimal inhibiting concentration
[12] = read-out: minimal inhibiting concentration, Escherichia coli isolate 1
[13] = read-out: minimal inhibiting concentration, Escherichia coli isolate 2
[14] = read-out: minimal inhibiting concentration, Escherichia coli isolate 3
[15] = read-out: minimal inhibiting concentration, Escherichia coli isolate 4
[16] = read-out: minimal inhibiting concentration, Escherichia coli isolate 5
[17] = read-out: minimal inhibiting concentration, Klebsiella ssp. isolate 2
[18] = read-out: minimal inhibiting concentration, Klebsiella ssp. isolate 3
[19] = read-out: minimal inhibiting concentration, Klebsiella ssp. isolate 4
[20] = read-out: minimal inhibiting concentration, Pseudomonas aeruginosa isolate 1
[21] = read-out: minimal inhibiting concentration, Pseudomonas aeruginosa isolate 2
[22] = read-out: minimal inhibiting concentration, Pseudomonas aeruginosa isolate 3
[23] = read-out: minimal inhibiting concentration, Pseudomonas aeruginosa isolate 4
[24] = read-out: minimal inhibiting concentration, Pseudomonas aeruginosa isolate 5

Molecule | interpretation of the result (Escherichia coli; Escherichia coli isolate 1) | interpretation of the result (Escherichia coli; Escherichia coli isolate 2) | minimal inhibiting concentration (Escherichia coli; Escherichia coli isolate 2) | interpretation of the result (Escherichia coli; Escherichia coli isolate 3) | minimal inhibiting concentration (Escherichia coli; Escherichia coli isolate 3) | interpretation of the result (Escherichia coli; Escherichia coli isolate 4) | minimal inhibiting concentration (Escherichia coli; Escherichia coli isolate 4) | interpretation of the result (Escherichia coli; Escherichia coli isolate 5) | minimal inhibiting concentration (Escherichia coli; Escherichia coli isolate 5) | interpretation of the result (Klebsiella ssp.; Klebsiella ssp. isolate 2) | minimal inhibiting concentration (Klebsiella ssp.; Klebsiella ssp. isolate 2) | interpretation of the result (Klebsiella ssp.; Klebsiella ssp. isolate 3) | minimal inhibiting concentration (Klebsiella ssp.; Klebsiella ssp. isolate 3) | interpretation of the result (Klebsiella ssp.; Klebsiella ssp. isolate 4) | minimal inhibiting concentration (Klebsiella ssp.; Klebsiella ssp. isolate 4) | interpretation of the result (Pseudomonas aeruginosa; [6]) | interpretation of the result (Pseudomonas aeruginosa; [7]) | interpretation of the result (Pseudomonas aeruginosa; [8]) | interpretation of the result (Pseudomonas aeruginosa; [9]) | interpretation of the result (Pseudomonas aeruginosa; [10]) | also measured
NCC[C@H](O)C(=O)N[C@@H]1C[C@H](N)[C@@H](O[C@H]2O[C@H](CN)[C@@H](O)[C@H](O)[C@H]2O)[C@H](O)[C@H]1O[C@H]1O[C@H](CO)[C@@H](O)[C@H](N)[C@H]1O [Amik., Amikacin] | S | S | ≤ 8 µg/mL | S | ≤ 8 µg/mL | S | ≤ 8 µg/mL | S | ≤ 8 µg/mL | S | ≤ 8 µg/mL | S | ≤ 8 µg/mL | S | ≤ 8 µg/mL | S | S | S | I | I | interpretation of the result (Acinetobacter baumannii; [1]): R; minimal inhibiting concentration (Acinetobacter baumannii; [1]): > 32 µg/mL; interpretation of the result (Acinetobacter baumannii; [2]): R; minimal inhibiting concentration (Acinetobacter baumannii; [2]): > 32 µg/mL; interpretation of the result (Acinetobacter baumannii; [3]): I; minimal inhibiting concentration (Acinetobacter baumannii; [3]): 32 µg/mL (≈ 54.6 µM); interpretation of the result (Acinetobacter baumannii; [4]): R; minimal inhibiting concentration (Acinetobacter baumannii; [4]): > 32 µg/mL; interpretation of the result (Acinetobacter baumannii; [5]): R; minimal inhibiting concentration (Acinetobacter baumannii; [5]): > 32 µg/mL; minimal inhibiting concentration (Escherichia coli; Escherichia coli isolate 1): ≤ 8 µg/mL; interpretation of the result (Klebsiella ssp.; Klebsiella ssp. isolate 1): S; minimal inhibiting concentration (Klebsiella ssp.; Klebsiella ssp. isolate 1): ≤ 8 µg/mL; interpretation of the result (Klebsiella ssp.; Klebsiella ssp. isolate 5): R; minimal inhibiting concentration (Klebsiella ssp.; Klebsiella ssp. isolate 5): > 32 µg/mL; minimal inhibiting concentration (Pseudomonas aeruginosa; [6]): ≤ 8 µg/mL; minimal inhibiting concentration (Pseudomonas aeruginosa; [7]): 16 µg/mL (≈ 27.3 µM); minimal inhibiting concentration (Pseudomonas aeruginosa; [8]): 16 µg/mL (≈ 27.3 µM); minimal inhibiting concentration (Pseudomonas aeruginosa; [9]): 32 µg/mL (≈ 54.6 µM); minimal inhibiting concentration (Pseudomonas aeruginosa; [10]): 32 µg/mL (≈ 54.6 µM)
CC1(C)S[C@@H]2[C@H](NC(=O)[C@H](N)c3ccccc3)C(=O)N2[C@H]1C(=O)O [Amp., Ampicillin] | R | R | > 16 µg/mL | R | > 16 µg/mL | R | > 16 µg/mL | R | > 16 µg/mL | R | > 16 µg/mL | R | > 16 µg/mL | R | > 16 µg/mL | R | R | R | R | R | interpretation of the result (Acinetobacter baumannii; [1]): R; interpretation of the result (Acinetobacter baumannii; [2]): R; interpretation of the result (Acinetobacter baumannii; [3]): R; interpretation of the result (Acinetobacter baumannii; [4]): R; interpretation of the result (Acinetobacter baumannii; [5]): R; MIC (Acinetobacter baumannii; read-out: minimal inhibiting concentration, Acinetobacter baumannii isolate 1): > 16 µg/mL; MIC (Acinetobacter baumannii; read-out: minimal inhibiting concentration, Acinetobacter baumannii isolate 2): > 16 µg/mL; MIC (Acinetobacter baumannii; read-out: minimal inhibiting concentration, Acinetobacter baumannii isolate 3): > 16 µg/mL; MIC (Acinetobacter baumannii; read-out: minimal inhibiting concentration, Acinetobacter baumannii isolate 4): > 16 µg/mL; MIC (Acinetobacter baumannii; read-out: minimal inhibiting concentration, Acinetobacter baumannii isolate 5): > 16 µg/mL; MIC (Escherichia coli; [11]): > 16 µg/mL; interpretation of the result (Klebsiella ssp.; Klebsiella ssp. isolate 1): R; interpretation of the result (Klebsiella ssp.; Klebsiella ssp. isolate 5): R; minimal inhibiting concentration (Klebsiella ssp.; Klebsiella ssp. isolate 5): > 16 µg/mL; MIC (Klebsiella ssp.; [11]): > 16 µg/mL; minimal inhibiting concentration (Pseudomonas aeruginosa; [7]): > 16 µg/mL; minimal inhibiting concentration (Pseudomonas aeruginosa; [8]): > 16 µg/mL; minimal inhibiting concentration (Pseudomonas aeruginosa; [9]): > 16 µg/mL; minimal inhibiting concentration (Pseudomonas aeruginosa; [10]): > 16 µg/mL; MIC (Pseudomonas aeruginosa; [11]): > 16 µg/mL
Cc1nnc(SCC2=C(C(=O)O)N3C(=O)[C@@H](NC(=O)Cn4cnnn4)[C@H]3SC2)s1 [Cefa., Cefazolin] | R | R |  | R |  | R |  | R |  | R |  | R |  | R |  | R | R | R | R | R | MIC (Escherichia coli; [12]): > 16 µg/mL; MIC (Escherichia coli; [13]): > 16 µg/mL; MIC (Escherichia coli; [14]): > 16 µg/mL; MIC (Escherichia coli; [15]): > 16 µg/mL; MIC (Escherichia coli; [16]): > 16 µg/mL; MIC (Klebsiella ssp.; [17]): > 16 µg/mL; MIC (Klebsiella ssp.; [18]): > 16 µg/mL; MIC (Klebsiella ssp.; [19]): > 16 µg/mL; MIC (Pseudomonas aeruginosa; [20]): > 16 µg/mL; MIC (Pseudomonas aeruginosa; [21]): > 16 µg/mL; MIC (Pseudomonas aeruginosa; [22]): > 16 µg/mL; MIC (Pseudomonas aeruginosa; [23]): > 16 µg/mL; MIC (Pseudomonas aeruginosa; [24]): > 16 µg/mL
CO/N=C(\C(=O)N[C@@H]1C(=O)N2C(C(=O)O)=C(CSc3nc(=O)c(=O)[nH]n3C)CS[C@H]12)c1csc(N)n1 [Co., Ceftriaxone] | R | R |  | R |  | R |  | R |  | R |  | R |  | R |  | R | R | R | R | R | MIC (Escherichia coli; [12]): > 32 µg/mL; MIC (Escherichia coli; [13]): > 32 µg/mL; MIC (Escherichia coli; [14]): > 32 µg/mL; MIC (Escherichia coli; [15]): > 32 µg/mL; MIC (Escherichia coli; [16]): > 32 µg/mL; MIC (Klebsiella ssp.; [17]): > 32 µg/mL; MIC (Klebsiella ssp.; [18]): 16 µg/mL (≈ 28.9 µM); MIC (Klebsiella ssp.; [19]): > 32 µg/mL; MIC (Pseudomonas aeruginosa; [20]): > 32 µg/mL; MIC (Pseudomonas aeruginosa; [21]): > 32 µg/mL; MIC (Pseudomonas aeruginosa; [22]): > 32 µg/mL; MIC (Pseudomonas aeruginosa; [23]): > 32 µg/mL; MIC (Pseudomonas aeruginosa; [24]): > 32 µg/mL
CO[C@@]1(NC(=O)Cc2cccs2)C(=O)N2C(C(=O)O)=C(COC(N)=O)CS[C@@H]21 [Cx., Cefoxitin] | S | S |  | S |  | R |  | S |  | S |  | R |  | S |  | R | R | R | R | R | MIC (Escherichia coli; [12]): 8 µg/mL (≈ 18.7 µM); MIC (Escherichia coli; [13]): ≤ 4 µg/mL; MIC (Escherichia coli; [14]): 8 µg/mL (≈ 18.7 µM); MIC (Escherichia coli; [15]): > 16 µg/mL; MIC (Escherichia coli; [16]): 8 µg/mL (≈ 18.7 µM); MIC (Klebsiella ssp.; [17]): ≤ 4 µg/mL; MIC (Klebsiella ssp.; [18]): > 16 µg/mL; MIC (Klebsiella ssp.; [19]): 8 µg/mL (≈ 18.7 µM); MIC (Pseudomonas aeruginosa; [20]): > 16 µg/mL; MIC (Pseudomonas aeruginosa; [21]): > 16 µg/mL; MIC (Pseudomonas aeruginosa; [22]): > 16 µg/mL; MIC (Pseudomonas aeruginosa; [23]): > 16 µg/mL; MIC (Pseudomonas aeruginosa; [24]): > 16 µg/mL
Piperacillin-Tazobactam [PipT.] | I | S | 2/4 | I | 32/4 | I | 16/4 | I | 32/4 | I | 32/4 | S | 16/4 | R | 64/4 | R | R | R | S | R | minimal inhibiting concentration (Escherichia coli; Escherichia coli isolate 1): 32/4; minimal inhibiting concentration (Pseudomonas aeruginosa; [6]): 64/4; minimal inhibiting concentration (Pseudomonas aeruginosa; [7]): 64/4; minimal inhibiting concentration (Pseudomonas aeruginosa; [8]): 64/4; minimal inhibiting concentration (Pseudomonas aeruginosa; [9]): 32/4; minimal inhibiting concentration (Pseudomonas aeruginosa; [10]): 64/4

Reference: US9529005B2, “Modulating bacterial MAM polypeptides in pathogenic disease” (priority 2011, dated 2016)
